Assay results taken from PubChem BioAssay AID1462 (Emory University Molecular Libraries Screening Center, 2008).
“And” between values parts separate entries of the source, which are not always exact repeats. Equal entries are not always repeated.

Target: Protein GrpE (Escherichia coli (strain K12)) (UniProt P09372)
Assay: inhibition of DnaK/DnaJ/GrpE luciferase refolding – biochemical, luminescence, E. coli K12, dose response (AID 1462)
Conditions: DnaK/DnaJ/GrpE denatured luciferase refolding

Protein GrpE (Escherichia coli (strain K12)), sequence (P09372 whole entry, looked up): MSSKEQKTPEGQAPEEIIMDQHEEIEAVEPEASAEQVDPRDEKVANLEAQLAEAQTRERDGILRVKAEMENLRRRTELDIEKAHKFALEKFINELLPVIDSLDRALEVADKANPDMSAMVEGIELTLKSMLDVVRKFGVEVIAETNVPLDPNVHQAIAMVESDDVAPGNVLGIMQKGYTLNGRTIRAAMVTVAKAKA

Nc1c(S(=O)(=O)O)cc(Nc2ccc(Nc3nc(Cl)nc(Nc4ccc(S(=O)(=O)O)cc4)n3)c(S(=O)(=O)O)c2)c2c1C(=O)c1ccccc1C2=O
IC50: 1660 nM and 551 nM
